Results taken from publication PMC12040169 (PLOS Biology, 2025).

Assay: in vitro
Settings: human, hela cells, % viability

SMILES	viability at 28.5 h, 10 µM [%]
COc1ccc(-n2nc3cc(C)c(NC(=S)NC(=O)/C=C/c4ccco4)cc3n2)cc1 [CBK264359]	109
O=C(COc1ccccc1)NC(=S)Nc1cccc(-c2nc3ccccc3s2)c1 [CBK264360]	107
O=[N+]([O-])c1ccc(N2CCN(S(=O)(=O)c3ccc4ccccc4c3)CC2)cc1NC1CC1 [CBK264361]	111
NS(=O)(=O)c1ccc(CCNC(=O)c2cc(-c3ccccc3)nc3ccccc23)cc1 [CBK264365]	96.9
O/N=C1/CCCCCC1NO (stereo not drawn) [CBK264368A]	107
Cc1[nH]c2ccccc2c1-c1csc(-c2ccncc2)n1 [CBK264371]	96.8
CC(=O)Oc1ccc(C(=O)NCc2ccc3c(c2)OCO3)cc1 [CBK264372]	91.2
Cc1ccc(O)c(NC(=S)NC(=O)COc2ccccc2)c1 [CBK264373]	106
CCCCOc1ccc(S(=O)(=O)Nc2ccc(-c3cn4ccccc4n3)cc2)cc1 [CBK264374]	88.9
NS(=O)(=O)c1ccc(CCNC(=O)CN2C(=O)c3ccccc3C2=O)cc1 [CBK264377]	96
CC(C)(c1ccccc1)c1ccc(OCCOc2ccc(/C=C3\SC(=S)NC3=O)cc2)cc1 [CBK264378]	91
NS(=O)(=O)c1ccc(CCNC(=O)/C=C/c2ccccc2Cl)cc1 [CBK264379]	94
O=C(COc1ccccc1)NC(=S)Nc1cc(-c2nc3ncccc3o2)ccc1Cl [CBK264380]	89.3
O=S(=O)(c1ccc(Cl)cc1)N1CCN(CC(O)Cn2c3ccccc3c3ccccc32)CC1 (stereo not drawn) [CBK264383]	105
CCOc1ccc(NCCCCO)cc1 [CBK264386]	92
OCc1ccccc1CN1CCOCC1 [CBK264388C]	83.3

SMILES	viability at 28.5 h, 10 µM [%]
NS(=O)(=O)c1ccc(CCNC(=O)C2c3ccccc3Oc3ccccc32)cc1 [CBK264389]	104
Cc1cc(C(=O)NCCc2ccc(S(N)(=O)=O)cc2)ccc1[N+](=O)[O-] [CBK264390]	105
O=C(/C=C/c1cccc([N+](=O)[O-])c1)NC(=S)Nc1ccc(-c2nc3ncccc3o2)cc1 [CBK264391]	99.2
NS(=O)(=O)c1ccc(CCNC(=O)c2ccccc2Oc2ccccc2)cc1 [CBK264394]	89.4
O=[N+]([O-])c1c(N2CCN(CCO)CC2)ccc2nonc12 [CBK264397]	96
Cc1cc(C)nc(Sc2nnc(-c3ccc(C)c(S(=O)(=O)N4CCOCC4)c3)c3ccccc23)n1 [CBK264400]	105
CCc1cc2c3c(c(=O)oc2cc1OCc1cc(C(=O)O)oc1C)CCCC3 [CBK264402]	98.8
Cc1ccccc1C(=O)NC(=S)Nc1sc2c(c1C#N)CCCC2 [CBK264403]	98.3
COc1cc(/C=C/C(=O)O)cc(S(=O)(=O)N2CCc3ccccc3C2)c1OC [CBK264406]	96.8
Cc1cc(C)n(-c2cc(N3CCN(S(=O)(=O)Cc4ccccc4)CC3)ccc2[N+](=O)[O-])n1 [CBK264407]	115
Cc1ccc(-c2nnc(S)n2/N=C\c2ccccc2OCC(=O)O)cc1 [CBK264408]	90.7
CCN1CCN(c2ccc([N+](=O)[O-])cc2S(=O)(=O)N2CCOCC2)CC1 [CBK264410]	113
CCN(CC)CCn1c(OC)cc(=O)[nH]c1=O [CBK264411]	97.5
O=C(COC(=O)C1CCN(S(=O)(=O)c2cccc3cccnc23)CC1)c1ccc([N+](=O)[O-])cc1 [CBK264412]	101
O=C1C2C3C=CC(C3)C2C(=O)N1CCNCCO (stereo not drawn) [CBK264414]	93
O=[N+]([O-])c1ccc(N2CCN(S(=O)(=O)c3ccccc3)CC2)cc1NCc1cccnc1 [CBK264415]	96.5

Same assay, conditions: human, hela cells, % viability, bulk resorufin, single well

SMILES	viability at 28.5 h, 10 µM [%]
O=C1NC(=O)N(c2ccc(Cl)cc2)C(=O)/C1=C\NC(CO)(CO)CO [CBK264421]	99.7
